Data on three compounds can be found in patent US20070009531A1 (priority 2005, published 2007).

For series [1] the following is noted: combination of verapamil and VAD (vincristine, doxorubicin, dexamethasone); cited from earlier work.
Series [2] concerns P-gp-associated resistance. The series can be described thus: in vivo activity in preclinical animal studies.
The nature of series [3]: pharmacokinetic interaction with co-administered oncolytics in preclinical models. Format: in vivo. As to conditions: several oncolytics.
The subject of the next series is AML. As to conditions: older patients, Mylotarg alone, registration trials; cited from earlier work.

“Also recorded” adds a separate entry of the source.

Turning to `COc1ccc(CCN(C)CCCC(C#N)(c2ccc(OC)c(OC)c2)C(C)C)cc1OC` (stereo not shown) [verapamil], in series [1], the patients responded is recorded as 5 of 22.
In the case of `O[C@@H](COc1cccc2ncccc12)CN1CCN([C@@H]2c3ccccc3[C@@H]3[C@H](c4ccccc42)C3(F)F)CC1` [zosuquidar], in series [2], the in vivo activity result is “good in vivo activity”. In series [3], the “pharmacokinetic interaction with co-administered chemotherapy” value is “no pharmacokinetic interaction; also recorded: minimal pharmacokinetic (PK) interactions”.
As for gemtuzumab ozogamicin [Mylotarg], the “rate of complete remission (CR+CRp)” value with AML is reported as 26%.
